Earlier results on one compound are cited in patent US11122797B2, “Pest repellent material” (JGC CATALYSTS AND CHEMICALS LTD., priority 2017, dated 2021).

The conditions of this data set: within 6 hours.

Consider `CCN(CC)C(=O)c1cccc(C)c1` [DEET, N, N-diethyl-m-toluamide], for which the “DEET applied to the skin transdermally absorbed” value is recorded as “about 50%”.
